Test results from PubChem BioAssay AID1963964 (Molecular Pharmacology Branch, DTP, NCI, 2024).

Tested on: 997726-040-R-J2-PDC tumor spheroids, viability
Experiment: Anticancer human tumor 997726-040-R-J2-PDC patient-derived squamous cell lung carcinoma cell line growth inhibition [PI3K]
Settings: spheroids with HUVEC and MSC; for IC50: curve of first compound; for viability, T/C: stronger effect = lower value
Procedure, shortened: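 Agents were dosed from a top concentration near clinical Cmax (otherwise 10 microM) in half-log decrements, alone or combined with PI3K inhibitors. The spheroids contain tumor cells plus endothelial (HUVEC) and MSC stroma; viability is measured.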

[1] = second compound 0.00316 µM, first compound 0.0316 µM
[2] = second compound 0.00316 µM, first compound 0.1 µM
[3] = second compound 0.00316 µM, first compound 0.316 µM
[4] = second compound 0.00316 µM, first compound 1 µM
[5] = second compound 0.00316 µM, first compound 3.16 µM
[6] = second compound 0.00316 µM, first compound 10 µM
[7] = second compound 0.01 µM, first compound 0.0316 µM
[8] = second compound 0.01 µM, first compound 0.1 µM
[9] = second compound 0.01 µM, first compound 0.316 µM
[10] = second compound 0.01 µM, first compound 1 µM
[11] = second compound 0.01 µM, first compound 3.16 µM
[12] = second compound 0.01 µM, first compound 10 µM
[13] = second compound 0.0316 µM, first compound 0.0316 µM
[14] = second compound 0.0316 µM, first compound 0.1 µM
[15] = second compound 0.0316 µM, first compound 0.316 µM
[16] = second compound 0.0316 µM, first compound 1 µM
[17] = second compound 0.0316 µM, first compound 3.16 µM
[18] = second compound 0.0316 µM, first compound 10 µM
[19] = second compound 0.1 µM, first compound 0.0316 µM
[20] = second compound 0.1 µM, first compound 0.1 µM
[21] = second compound 0.1 µM, first compound 0.316 µM
[22] = second compound 0.1 µM, first compound 1 µM
[23] = second compound 0.1 µM, first compound 3.16 µM
[24] = second compound 0.1 µM, first compound 10 µM
[25] = second compound 0.316 µM, first compound 0.0316 µM
[26] = second compound 0.316 µM, first compound 0.1 µM
[27] = second compound 0.316 µM, first compound 0.316 µM
[28] = second compound 0.316 µM, first compound 1 µM
[29] = second compound 0.316 µM, first compound 3.16 µM
[30] = second compound 0.316 µM, first compound 10 µM
[31] = second compound 1 µM, first compound 0.0316 µM
[32] = second compound 1 µM, first compound 0.1 µM
[33] = second compound 1 µM, first compound 0.316 µM
[34] = second compound 1 µM, first compound 1 µM
[35] = second compound 1 µM, first compound 3.16 µM
[36] = second compound 1 µM, first compound 10 µM
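Further: spheroids exposed to compounds for seven days before readout.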

`CC(C)NCC(C(=O)N1CCN(c2ncnc3c2C(C)CC3O)CC1)c1ccc(Cl)cc1` (stereo not drawn) + COc1c(OCCCN2CCOCC2)ccc2c3n(c(=NC(=O)c4cnc(N)nc4)nc12)CCN3 was tested, and the IC50 (second compound 0.00316 µM) was 0.19 µM, the IC50 (second compound 0.01 µM) was 0.0798 µM and the IC50 (second compound 0.0316 µM) was < 0.0316 µM. For the same compound, the IC50 (second compound 0.1 µM) was < 0.0316 µM, the IC50 (second compound 0.316 µM) was < 0.0316 µM and the IC50 (second compound 1 µM) was < 0.0316 µM. It also gave a viability, T/C [1] of 67.1%, a viability, T/C [2] of 55.3% and a viability, T/C [3] of 46%. It also gave a viability, T/C [4] of 29.1%, a viability, T/C [5] of 15.7% and a viability, T/C [6] of 9.1%. The viability, T/C [7] was 51.6%, the viability, T/C [8] was 49.6% and the viability, T/C [9] was 42.8%. For the same compound, the viability, T/C [10] was 27%, the viability, T/C [11] was 16.8% and the viability, T/C [12] was 9.46%. The viability, T/C [13] was 36.4%, the viability, T/C [14] was 33.1% and the viability, T/C [15] was 27%. The viability, T/C [16] was 22.3%, the viability, T/C [17] was 13.3% and the viability, T/C [18] was 7.3%. The viability, T/C [19] was 19.4%, the viability, T/C [20] was 17.6% and the viability, T/C [21] was 18.9%. The viability, T/C [22] was 14.4%, the viability, T/C [23] was 8.93% and the viability, T/C [24] was 5.81%. It also gave a viability, T/C [25] of 6.3%, a viability, T/C [26] of 5.44% and a viability, T/C [27] of 4.27%. It also gave a viability, T/C [28] of 3.76%, a viability, T/C [29] of 3.51% and a viability, T/C [30] of 2.65%. For the same compound, the viability, T/C [31] was 1.14%, the viability, T/C [32] was 1.32% and the viability, T/C [33] was 1.04%. It also gave a viability, T/C [34] of 1.33%, a viability, T/C [35] of 2.38% and a viability, T/C [36] of 1.22%.
`CCN1CCN(Cc2ccc(Nc3ncc(F)c(-c4cc(F)c5nc(C)n(C(C)C)c5c4)n3)nc2)CC1` + COc1c(OCCCN2CCOCC2)ccc2c3n(c(=NC(=O)c4cnc(N)nc4)nc12)CCN3 was tested, and the IC50 (second compound 0.00316 µM) was > 1 µM, the IC50 (second compound 0.01 µM) was 0.0104 µM and the IC50 (second compound 0.0316 µM) was < 0.00316 µM. The IC50 (second compound 0.1 µM) was < 0.00316 µM, the IC50 (second compound 0.316 µM) was < 0.00316 µM and the IC50 (second compound 1 µM) was < 0.00316 µM. The viability, T/C (second compound 0.00316 µM, first compound 0.00316 µM) was 70%, the viability, T/C (second compound 0.00316 µM, first compound 0.01 µM) was 68.4% and the viability, T/C [1] was 62.2%. The viability, T/C [2] was 54.2%, the viability, T/C [3] was 55.1% and the viability, T/C [4] was 65.3%. The viability, T/C (second compound 0.01 µM, first compound 0.00316 µM) was 61%, the viability, T/C (second compound 0.01 µM, first compound 0.01 µM) was 50.4% and the viability, T/C [7] was 49.1%. For the same compound, the viability, T/C [8] was 41.3%, the viability, T/C [9] was 41.5% and the viability, T/C [10] was 60.8%. The viability, T/C (second compound 0.0316 µM, first compound 0.00316 µM) was 31.4%, the viability, T/C (second compound 0.0316 µM, first compound 0.01 µM) was 34.8% and the viability, T/C [13] was 29.5%. It also gave a viability, T/C [14] of 28.1%, a viability, T/C [15] of 31% and a viability, T/C [16] of 33.7%. The viability, T/C (second compound 0.1 µM, first compound 0.00316 µM) was 22%, the viability, T/C (second compound 0.1 µM, first compound 0.01 µM) was 20.4% and the viability, T/C [19] was 17.7%. The viability, T/C [20] was 16.6%, the viability, T/C [21] was 16.9% and the viability, T/C [22] was 19.3%. The viability, T/C (second compound 0.316 µM, first compound 0.00316 µM) was 5.44%, the viability, T/C (second compound 0.316 µM, first compound 0.01 µM) was 4.49% and the viability, T/C [25] was 4.5%. For the same compound, the viability, T/C [26] was 6.65%, the viability, T/C [27] was 6.95% and the viability, T/C [28] was 7.72%. It also gave a viability, T/C (second compound 1 µM, first compound 0.00316 µM) of 1.02%, a viability, T/C (second compound 1 µM, first compound 0.01 µM) of 1.63% and a viability, T/C [31] of 1.24%. For the same compound, the viability, T/C [32] was 1.32%, the viability, T/C [33] was 2.23% and the viability, T/C [34] was 3.91%.
`Cn1ncc(Cl)c1-c1cc(C(=O)NC(CN)Cc2cccc(F)c2)sc1Cl` (stereo not drawn) + COc1c(OCCCN2CCOCC2)ccc2c3n(c(=NC(=O)c4cnc(N)nc4)nc12)CCN3 was tested, and the IC50 (second compound 0.00316 µM) was 0.0532 µM, the IC50 (second compound 0.01 µM) was < 0.0316 µM and the IC50 (second compound 0.0316 µM) was < 0.0316 µM. For the same compound, the IC50 (second compound 0.1 µM) was < 0.0316 µM, the IC50 (second compound 0.316 µM) was < 0.0316 µM and the IC50 (second compound 1 µM) was < 0.0316 µM. The viability, T/C [1] was 55.2%, the viability, T/C [2] was 43.9% and the viability, T/C [3] was 25.2%. For the same compound, the viability, T/C [4] was 15.7%, the viability, T/C [5] was 9.84% and the viability, T/C [6] was 10.3%. The viability, T/C [7] was 46.3%, the viability, T/C [8] was 39% and the viability, T/C [9] was 21.6%. For the same compound, the viability, T/C [10] was 12.4%, the viability, T/C [11] was 7.68% and the viability, T/C [12] was 10.1%. For the same compound, the viability, T/C [13] was 30.6%, the viability, T/C [14] was 28% and the viability, T/C [15] was 20%. The viability, T/C [16] was 10.6%, the viability, T/C [17] was 8.98% and the viability, T/C [18] was 7.48%. For the same compound, the viability, T/C [19] was 21.4%, the viability, T/C [20] was 19.4% and the viability, T/C [21] was 12.5%. It also gave a viability, T/C [22] of 8.76%, a viability, T/C [23] of 8.67% and a viability, T/C [24] of 5.52%. It also gave a viability, T/C [25] of 4.97%, a viability, T/C [26] of 5.24% and a viability, T/C [27] of 3.32%. It also gave a viability, T/C [28] of 4.64%, a viability, T/C [29] of 4.59% and a viability, T/C [30] of 3.13%. The viability, T/C [31] was 1.15%, the viability, T/C [32] was 1.24% and the viability, T/C [33] was 1.45%. It also gave a viability, T/C [34] of 1.8%, a viability, T/C [35] of 2.57% and a viability, T/C [36] of 0.94%.
`Cn1nccc1Nc1nccc(-c2ccn(C(CO)c3ccc(Cl)c(F)c3)c(=O)c2)n1` (stereo not drawn) + COc1c(OCCCN2CCOCC2)ccc2c3n(c(=NC(=O)c4cnc(N)nc4)nc12)CCN3 was tested, and the IC50 (second compound 0.00316 µM) was 0.299 µM, the IC50 (second compound 0.01 µM) was 0.0408 µM and the IC50 (second compound 0.0316 µM) was < 0.0316 µM. The IC50 (second compound 0.1 µM) was < 0.0316 µM, the IC50 (second compound 0.316 µM) was < 0.0316 µM and the IC50 (second compound 1 µM) was < 0.0316 µM. The viability, T/C [1] was 70.4%, the viability, T/C [2] was 66.3% and the viability, T/C [3] was 49.1%. For the same compound, the viability, T/C [4] was 51.9%, the viability, T/C [5] was 44.8% and the viability, T/C [6] was 49.8%. It also gave a viability, T/C [7] of 52%, a viability, T/C [8] of 47.7% and a viability, T/C [9] of 40.3%. It also gave a viability, T/C [10] of 43.9%, a viability, T/C [11] of 42.1% and a viability, T/C [12] of 34.2%. For the same compound, the viability, T/C [13] was 37.3%, the viability, T/C [14] was 35.5% and the viability, T/C [15] was 26.8%. The viability, T/C [16] was 27.5%, the viability, T/C [17] was 27.3% and the viability, T/C [18] was 25.2%. For the same compound, the viability, T/C [19] was 20.4%, the viability, T/C [20] was 20.2% and the viability, T/C [21] was 18.3%. For the same compound, the viability, T/C [22] was 19%, the viability, T/C [23] was 20% and the viability, T/C [24] was 11.8%. For the same compound, the viability, T/C [25] was 5.76%, the viability, T/C [26] was 4.79% and the viability, T/C [27] was 5.29%. It also gave a viability, T/C [28] of 3.62%, a viability, T/C [29] of 3.85% and a viability, T/C [30] of 0.65%. It also gave a viability, T/C [31] of 0.97%, a viability, T/C [32] of 1.38% and a viability, T/C [33] of 1.3%. For the same compound, the viability, T/C [34] was 0.75%, the viability, T/C [35] was 0.59% and the viability, T/C [36] was 0.31%.
